# Results published in patent US20250304537A1 (Repare Therapeutics Inc., priority 2022, published 2025).
# Tested on: PKMYT1 (CDK1 pThr14) in FUOV1 cells
# Assay: PKMYT1 cell-based activity assay, CDK1 pThr14 AlphaLISA in FUOV1 cells
# Conditions: 2 h, 2 h compound incubation, read-out: FUOV-1 CDK1 pThr14 IC50
# Procedure: To determine compound IC50 (PKMYT1 cell-based activity assay, CDK1 pThr14 AlphaLISA), FUOV1 cells were plated into a 96-well TC-treated culture plate at 50000 cells/well in a final volume of 100 μL of media. The plates were then allowed to equilibrate in a biological safety cabinet for 30 minutes before being placed in a humidified incubator at 37 C and 5% CO2 overnight. The next day, 2 μL of PKMYT1 inhibitors or DMSO were diluted in 400 μL of warmed culture media in a 96-well block using a Biomek FX liquid handler. Compounds were mixed in media and then 25 μL was dispensed into each well of the 96-well cell plate. Plates were centrifuged at 300 g for 10 seconds and then placed in the incubator for 2 hours. After the 2-hour incubation with compound, media was removed via aspiration using a multichannel pipette. 30 μL of 1× AlphaLISA lysis buffer (Perkin Elmer) supplemented with protease and phosphatase inhibitors as well as 1 mM PMSF, was added to each well. Plates were rotated at 500 g for 20 minutes to facilitate lysis. Plates were then sealed with aluminum foil and frozen at −80° C. for at least 1 hour. Lysates were thawed at 37° C. for 10 minutes, then 10 μL of each lysate was transferred in duplicate to a white 384-well assay plate. Antibody mixture was prepared in 1× AlphaLISA assay buffer (Perkin Elmer) containing antibodies (5 nM final concentration for rabbit pThr14-CDK1 from Abcam #ab58509 and mouse total CDK1 from ThermoFisher Scientific #33-1800). 5 μL of antibody mixture was added to each well of the assay plate. The assay plate was sealed and stored at 4° C. overnight. The next day, AlphaLISA bead mixture (Perkin Elmer) was prepared in 1× AlphaLISA assay buffer. Anti-rabbit IgG Acceptor (Perkin Elmer #AL104C) and anti-mouse IgG Donor beads (Perkin Elmer #AS104D) were prepared to a concentration of 80 μg/ml in assay buffer. 5 μL of bead mixture was added to each well of the assay plate (20 μg/ml final concentration for each bead). The plate was protected from light and incubated for 2 hours at room temperature. After a 2-hour incubation with beads, the plate was read using the Perkin Elmer EnVision Multimode plate reader with excitation at 680 nm and emission at 615 nm.
row,Structure (SMILES),IC50 [nM]
1,Cc1ccc2[nH]ncc2c1-c1nc(-c2cccnc2NC2CCN(C)C2=O)nc(C(N)=O)c1N (stereo not shown) [Compound 561],426
2,Cc1ccc2[nH]ncc2c1-c1nc(-c2cccnc2NC[C@H]2CCOC2)nc(C(N)=O)c1N [Compound 594],36
3,Cc1ccc2[nH]ncc2c1-c1nc(-c2ccc(C#N)cc2Nc2ncccn2)nc(C(N)=O)c1N [Compound 645],12
4,Cc1ccc2[nH]ncc2c1-c1nc(-c2ccc(F)cc2Nc2cnccc2C#N)nc(C(N)=O)c1N [Compound 699],48
5,"Cc1ccc2[nH]ncc2c1-c1nc(-c2cccnc2Nc2nc(F)ccc2F)nc(C(N)=O)c1F [Compound 500, 2-(2-((3,6-difluoropyridin-2-yl)amino)pyridin-3-yl)-5-fluoro-6-(5-methyl-1H-indazol-4-yl)pyrimidine-4-carboxamide]",437
6,Cc1ccc2[nH]ncc2c1-c1nc(-c2cccnc2NC[C@H]2CCCOC2)nc(C(N)=O)c1N [Compound 667],42
7,Cc1ccc2[nH]ncc2c1-c1nc(-c2cncnc2NCC(F)(F)F)nc(C(N)=O)c1N [Compound 573],182
8,Cc1ccc2[nH]ncc2c1-c1nc(-c2ccc(F)cc2Nc2nnccc2C#N)nc(C(N)=O)c1N [Compound 539],20
9,Cc1ccc2[nH]ncc2c1-c1nc(-c2cccnc2NC2CC(=O)N(C)C2)nc(C(N)=O)c1N (stereo not shown) [Compound 552],245
10,Cc1ccc2[nH]ncc2c1-c1nc(-c2ccc(F)cc2Nc2ccnnc2)nc(C(N)=O)c1N [Compound 553],183
11,Cc1ccncc1Nc1cc(F)ccc1-c1nc(C(N)=O)c(N)c(-c2c(C)ccc3[nH]ncc23)n1 [Compound 664],41
12,Cc1ccc2[nH]ncc2c1-c1cc2c(oc3ccc(F)nc32)c(C(N)=O)c1N [Compound 557],416
13,"Cc1ccc2[nH]ncc2c1-c1nc(-c2cc(F)ccc2Nc2cccnc2)nc(C(N)=O)c1N [Compound 519, 5-amino-2-(5-fluoro-2-(pyridin-3-ylamino)phenyl)-6-(5-methyl-1H-indazol-4-yl)pyrimidine-4-carboxamide]",59
14,Cc1ccc2[nH]ncc2c1-c1nc(-c2cc(F)cnc2N[C@H]2C[C@H](O)C2)nc(C(N)=O)c1N [Compound 690],16
15,Cc1nc(F)cc(Nc2cc(F)ccc2-c2nc(C(N)=O)c(N)c(-c3c(C)ccc4[nH]ncc34)n2)n1 [Compound 568],15
16,"Cc1ccc2[nH]ncc2c1-c1nc(-c2ccc(F)cc2Nc2cncnc2)nc(C(N)=O)c1N [Compound 541, 5-amino-2-(4-fluoro-2-(pyrimidin-5-ylamino)phenyl)-6-(5-methyl-1H-indazol-4-yl)pyrimidine-4-carboxamide]",47
17,Cc1ncc(F)c(Nc2cc(F)ccc2-c2nc(C(N)=O)c(N)c(-c3c(C)ccc4[nH]ncc34)n2)n1 [Compound 714],13
18,Cc1csc(Nc2cc(F)ccc2-c2nc(C(N)=O)c(N)c(-c3c(C)ccc4[nH]ncc34)n2)n1 [Compound 588],45
19,Cc1ccc(C)c(Nc2ncccc2-c2nc(C(N)=O)c(N)c(-c3c(C)ccc4[nH]ncc34)n2)n1 [Compound 707],38
20,Cc1ccccc1Nc1ncccc1-c1nc(C(N)=O)c(N)c(-c2c(C)ccc3[nH]ncc23)n1 [Compound 657],70
21,Cc1cncc(Nc2cc(F)ccc2-c2nc(C(N)=O)c(N)c(-c3c(C)ccc4[nH]ncc34)n2)c1 [Compound 666],38
22,Cc1ccc2[nH]ncc2c1-c1nc(-c2ccc(F)cc2NC(=O)C2(C)CCCO2)nc(C(N)=O)c1N (stereo not shown) [Compound 528],118
23,"Cc1ccnc(Nc2ncccc2-c2nc(C(N)=O)c(N)c(-c3c(C)ccc4[nH]ncc34)n2)n1 [Compound 565, 5-amino-6-(5-methyl-1H-indazol-4-yl)-2-(2-((4-methylpyrimidin-2-yl)amino)pyridin-3-yl)pyrimidine-4-carboxamide]",71
24,Cc1ccc2[nH]ncc2c1-c1nc(-c2ccc(F)cc2Nc2cccnn2)nc(C(N)=O)c1N [Compound 515],11
25,NC(=O)c1nc(-c2cc(F)ccc2Nc2ncc(F)cn2)nc(-c2c(Cl)ccc3[nH]ncc23)c1N [Compound 554],138
26,Cc1ccc2[nH]ncc2c1-c1nc(-c2ccc(F)cc2Nc2ncncc2C#N)nc(C(N)=O)c1N [Compound 655],4

# Continued, values first:
row,IC50 [nM],Structure (SMILES)
1,14,Cc1ccc2[nH]ncc2c1-c1nc(-c2ccc(C#N)cc2Nc2nccnc2C)nc(C(N)=O)c1N [Compound 751]
2,57,Cc1ccc2[nH]ncc2c1-c1nc(-c2cccnc2Nc2ncccc2C2CC2)nc(C(N)=O)c1N [Compound 729]
3,25,Cc1ccc(-c2nc(C(N)=O)c(N)c(-c3c(C)ccc4[nH]ncc34)n2)c(Nc2ncccn2)n1 [Compound 764]
4,13,Cc1ccc(Cl)c(Nc2ncccc2-c2nc(C(N)=O)c(N)c(-c3c(C)ccc4[nH]ncc34)n2)n1 [Compound 716]
5,494,Cc1ccc2[nH]ncc2c1-c1nc(-c2ccccc2CO)nc(C(N)=O)c1N [Compound 779]
6,44,Cc1ccc2[nH]ncc2c1-c1nc(-c2cccnc2N[C@H]2CC[C@@H](O)C2)nc(C(N)=O)c1N [Compound 784]
7,96,Cc1ccc2[nH]ncc2c1-c1nc(-c2ccc(C(F)(F)F)nc2Nc2nccnc2Cl)nc(C(N)=O)c1N [Compound 771]
8,199,Cc1ccc2[nH]ncc2c1-c1nc(-c2cc(F)cnc2N[C@H]2CC[C@H](C(C)(C)O)CC2)nc(C(N)=O)c1N [Compound 757]
9,17,Cc1ccc2[nH]ncc2c1-c1nc(-c2ccc(Cl)nc2Nc2nccnc2Cl)nc(C(N)=O)c1N [Compound 770]
10,6,Cc1ccc(F)c(Nc2ncccc2-c2nc(C(N)=O)c(N)c(-c3c(C)cc(F)c4[nH]ncc34)n2)n1 [Compound 773]
11,39,Cc1cnc(C)c(Nc2ncccc2-c2nc(C(N)=O)c(N)c(-c3c(C)ccc4[nH]ncc34)n2)n1 [Compound 718]

# Same assay, conditions: 2 h, 2 h incubation, read-out: FUOV-1 CDK1 pThr14 IC50
row,IC50 [nM],Structure (SMILES)
1,404,Cc1ccc2[nH]ncc2c1-c1cc(-c2ccnc(OCc3ccco3)n2)nc(C(N)=O)c1N [Compound 213]

# Same assay, conditions: 2 h, 2 hours with compound, read-out: FUOV-1 CDK1 pThr14 IC50
row,IC50 [nM],Structure (SMILES)
1,469,NC(=O)c1nc(-c2cccnc2NC2CC2)nc(-c2cccc3[nH]ncc23)c1N [Compound 932]
2,16,N#Cc1cccnc1Nc1nc(F)ccc1-c1nc(C(N)=O)c(N)c(-c2c(F)ccc3[nH]ncc23)n1 [Compound 969]
3,21,NC(=O)c1nc(-c2ccc(F)nc2Nc2ncccc2F)nc(-c2c(F)ccc3[nH]ncc23)c1N [Compound 971]
4,54,"Cc1ccc2[nH]ncc2c1-c1nc(-c2cccnc2NC2CC2)nc(C(N)=O)c1N [Compound 914, 5-amino-2-(2-(cyclopropylamino)pyridin-3-yl)-6-(5-methyl-1H-indazol-4-yl)pyrimidine-4-carboxamide]"
5,511,Cc1ccc2[nH]ncc2c1-c1nc(-c2cc(F)cnc2N[C@H]2COC[C@H]2O)nc(C(N)=O)c1N [Compound 815]
6,32,N#Cc1ccc(-c2nc(C(N)=O)c(N)c(-c3c(Cl)ccc4[nH]ncc34)n2)c(Nc2ncccn2)c1 [Compound 958]
7,2,[2H]C([2H])([2H])c1ccc2[nH]ncc2c1-c1nc(-c2cccnc2Nc2nc(C)ccc2F)nc(C(N)=O)c1N [Compound 824]
8,22,Cc1ccc2[nH]ncc2c1-c1nc(-c2cc(F)cnc2N[C@H]2C[C@H]3CC[C@@H]2O3)nc(C(N)=O)c1N [Compound 891]
9,111,Cc1ccc2[nH]ncc2c1-c1nc(-c2cc(F)cnc2N[C@@H](C)C(F)(F)F)nc(C(N)=O)c1N [Compound 888]
10,121,Cc1cc(F)c2[nH]ncc2c1-c1nc(-c2cc(F)cnc2NCC(C)(C)C#N)nc(C(N)=O)c1N [Compound 874]
11,47,Cc1ccc2[nH]ncc2c1-c1nc(-c2cccnc2N[C@H]2C[C@@](C)(O)C2)nc(C(N)=O)c1N [Compound 918]
12,92,NC(=O)c1nc(-c2cccnc2NC2CC2)nc(-c2c(Cl)ccc3[nH]ncc23)c1N [Compound 919]
13,343,Cc1ccc2[nH]ncc2c1-c1nc(-c2c[nH]nc2NC2CCOCC2)nc(C(N)=O)c1N [Compound 927]
14,203,[2H]C([2H])([2H])c1ccc2[nH]ncc2c1-c1nc(-c2ccc(C3CC3)nc2Nc2nc(C)ncc2F)nc(C(N)=O)c1N [Compound 977]
15,13,Cc1c(F)cc2[nH]ncc2c1-c1nc(-c2ccc(C(F)F)nc2Nc2ncccc2F)nc(C(N)=O)c1N [Compound 855]
16,212,NC(=O)c1nc(-c2cccnc2NC2CC2)nc(-c2c(Cl)cc(F)c3[nH]ncc23)c1N [Compound 967]

# Same assay, conditions: 2 h incubation, read-out: FUOV-1 CDK1 pThr14 IC50
row,IC50 [nM],Structure (SMILES)
1,> 10000,Cc1ccc2[nH]ncc2c1-c1cc(-c2ccnc(OCC(F)(F)F)n2)nc(C(N)=O)c1N [Compound 165]
